Values after ≈ are worked out from the molar mass of the structure shown. Where two headings read alike, the source gives them in different places.
Assay: Solubility of the active component in Japanese Pharmacopoeia dissolution test fluids
Format: physicochemical
Description: As specific materials, N^2-[(2E)-3-(4-chlorophenyl)-2-propenoyl]-N-[2-oxo-2-(4-{[6-(trifluoromethyl)pyrimidine-4-yl]oxy}piperidine-1-yl)ethyl]-3-pyridine-2-yl-L-alaninamide (manufactured by Astellas Pharma Inc., a solubility to a dissolution test 1st fluid of the Japanese Pharmacopoeia: >100 µM, a solubility to a dissolution test 2nd fluid of the Japanese Pharmacopoeia: 23.2 µM, hereinafter abbreviated as a compound A) was selected as an active component, Poly(vinyl alcohol) [MW 6000] (manufactured by Polysciences, Inc., the same hereinafter unless otherwise specified) was selected as a thermoplastic polymer, maltitol (SweetPearl P200, manufactured by Roquette, the same hereinafter unless otherwise specified) was selected as a sugar alcohol, and Triethyl Citrate (manufactured by Tokyo Chemical Industry Co., Ltd., the same hereinafter unless otherwise specified) was selected as a plasticizer component.

solubility (dissolution test 1st fluid of the Japanese Pharmacopoeia, pH 1.2, simulated gastric fluid, read-out: solubility to a dissolution test 1st fluid of the Japanese Pharmacopoeia): > 100 µM
solubility (dissolution test 2nd fluid of the Japanese Pharmacopoeia, pH 6.8, aqueous buffer, read-out: solubility to a dissolution test 2nd fluid of the Japanese Pharmacopoeia): 23.2 µM (≈ 14.3 µg/mL)
Structure (SMILES): O=C(/C=C/c1ccc(Cl)cc1)N[C@@H](Cc1ccccn1)C(=O)NCC(=O)N1CCC(Oc2cc(C(F)(F)F)ncn2)CC1 [compound A, N^2-[(2E)-3-(4-chlorophenyl)-2-propenoyl]-N-[2-oxo-2-(4-{[6-(trifluoromethyl)pyrimidine-4-yl]oxy}piperidine-1-yl)ethyl]-3-pyridine-2-yl-L-alaninamide]

Reference: patent publication US12377601B2, “Fast-eluting three-dimensionally molded object, filament for fast-eluting three-dimensionally molded object, and material for fast-eluting three-dimensionally molded object” (ASTELLAS PHARMA INC., priority 2016, dated 2025)
